Results from US20030212034A1, “Method of treatment of obesity and paralyzed muscle and ergogenic aids” (priority 2002, published 2003).

What was measured:
Type in all cases: in vivo, rat
cytochrome c = test: Muscle cytochrome c protein by western blot after chronic AICAR injection; settings: AICAR 4 weeks, FIG. 2
Procedure: (§1) To determine the effect of chronic injection of AICAR on muscle enyzme activities or expression and on muscle GLUT4, rats were injected subcutaneously (between 8 and 10 a.m.) with AICAR (1 mg/g) or saline vehicle daily for 28±1 days in succession. Beginning with the first injection, controls were pair fed with AICAR-injected rats. Rats were anesthetized by intraperitoneal injection of pentobarbital sodium 22-25 hours after the last AICAR injection and the white and red regions of the quadriceps and the soleus muscles were removed and frozen as described above. Muscles were kept frozen at −70° C. until analyzed. Liver, heart, kidney, and fat pads were weighed.
For the chronic effects of AICAR injection muscles were analyzed for glycogen GLUT-4, hexokinase, lactate dehydrogenase, and several mitochondrial enzymes. Hassid, W. Z., & S. Abraham Methods Enzymol. 3:35-36, 1957. GLUT4 was quantitated by western blotting as described previously using GLUT4 polyclonal antibody RaIRGT, Biogenesis, Sandown, N.H.) and horseradish peroxidase-conjugated donkey anti-rabbit IgG (Amersham Life Science, Arlington Heights, Ill.). Holmes, B. F., et al. J. Appl Physiol 87:1990-1995, 1999. δ-Aminolevulinic acid synthase was determined using western blotting techniques as described previously. Li, B., et al. J. Biol. Chem. 274:17534-17540, 1999. […] Protein bands were quantified by densitometry.

[1] = Muscle weights in 3-day denervated and contralateral control muscles; settings: same in both treatment groups
Procedure: (§2) Rats were anesthetized with ether and the sciatic nerve of the right hindlimb was severed. The left hindlimb was sham operated to serve as a control. Both skin wounds were closed with a metal clips. The rats used for the acute study were also implanted with a jugular catheter which was exteriorized on the back of the neck at the time of denervation for rapid administration of anesthesia.
Rats were injected either with AICAR (1 mg in 0.9% NaCl/g body weight) or a 0.9% NaCl solution ˜0, ˜24, and ˜48 hours after denervation and were then sacrificed ˜72 hours after denervation without injection. Rats were anesthetized with sodium pentobarbital (4.8 mg/100 g. body weight), soleus and gastrocnemius muscles from both sham and denervated sides were extracted, and muscles were quick frozen in liquid nitrogen and stored for analysis.

GLUT4 = test: Muscle GLUT4 by western blot after chronic AICAR injection; settings: AICAR 1 mg/g 4 weeks, FIG. 5
Procedure: as §1
For the chronic effects of AICAR injection muscles were analyzed for glycogen GLUT-4, hexokinase, lactate dehydrogenase, and several mitochondrial enzymes. Hassid, W. Z., & S. Abraham Methods Enzymol. 3:35-36, 1957. GLUT4 was quantitated by western blotting as described previously using GLUT4 polyclonal antibody RaIRGT, Biogenesis, Sandown, N.H.) and horseradish peroxidase-conjugated donkey anti-rabbit IgG (Amersham Life Science, Arlington Heights, Ill.). Holmes, B. F., et al. J. Appl Physiol 87:1990-1995, 1999. δ-Aminolevulinic acid synthase was determined using western blotting techniques as described previously. Li, B., et al. J. Biol. Chem. 274:17534-17540, 1999. For determination of cytochrome c, muscles were homogenized in 10 mM n-2-hydroxyethylpiperazine-N′-2-ethanesulfonic acid (HEPES), 1 mM EDTA, and 250 mM sucrose (HES buffer). […] Cytochrome c was detected by incubating the nitrocellulose blots with a rabbit polyclonal antibody against rabbit heart cytochrome c (Alpha Diagnostics International, San Antonio) followed by horseradish peroxidase-conjugated anti-rabbit immunoglobulin G. Antibody bound GLUT4, δ-Aminolevulinic acid synthase, and cytochrome c were visualized using enhanced chemiluminescence. Protein bands were quantified by densitometry.

[2] = tested on: AMP-activated protein kinase (AMPK); test: AMPK activity in denervated and contralateral muscles after acute AICAR injection; settings: acute AICAR 1 mg/g
Description: as §2
Rats were denervated between 8:30 a.m. and 10:30 a.m. and were then given 25 g of food. Rats were handled twice during the day to accustom them to being handled. The rats were given a single subcutaneous injection 24 hours. after surgery of either AICAR (1 mg/g body weight) in sterile 0.9% NaCl or with just 0.9% NaCl, and were subsequently anesthetized intravenously. Soleus and gastrocnemius muscles from both sham and denervated sides were extracted and quick frozen in liquid nitrogen for analysis. AMPK activity and acetyl-Co A carboxylase (ACC) activity were determined as previously described. Winder W W & Hardie D G, Am J. Physiol 270 (Endocrinol Metab 33): E299-E304, 1996. Because this analysis is done on homogenates prepared by ammonium sulfate precipitation, only those effects on AMPK activity modified by phosphorylation are measured. […] Because ACC is a target for phosphorylation by AMPK, and because ACC activity has been reported to decrease in response to phosphorylation by AMPK, ACC activity is measured to give an indication of the in vivo actions of AMPK.

NC(=O)c1ncn([C@@H]2O[C@H](CO)[C@@H](O)[C@H]2O)c1N [AICAR, 5-aminoimidazole-4-carboxamide-1-β-D-ribofuranoside]
cytochrome c protein vs saline controls (cytochrome c; red quadriceps): not in red quadriceps
cytochrome c protein vs saline controls (cytochrome c; white quadriceps): also increased
loss of muscle mass after 3 days of denervation ([1]; gastrocnemius): ~14%
loss of muscle mass after 3 days of denervation ([1]; soleus): ~20%
GLUT4 vs saline-injected controls (GLUT4; red region of the quadriceps): significantly increased
GLUT4 vs saline-injected controls (GLUT4; soleus, p=0.12): did not reach statistical significance
GLUT4 vs saline-injected controls (GLUT4; white region of the quadriceps): significantly increased
AMPK activity vs saline-treated contralateral innervated muscles ([2]; contralateral innervated gastrocnemius, FIG. 7): significantly (P<0.05) elevated
AMPK activity vs saline-treated contralateral innervated muscles ([2]; contralateral innervated soleus, FIG. 8): significantly (P<0.05) elevated
AMPK activity vs saline-treated contralateral innervated muscles ([2]; denervated gastrocnemius, FIG. 7): significantly (P<0.05) elevated
